# Literature values, collected in patent US20070248684A1, “Pharmaceutical formulations of oxcarbazepine and methods for its preparation” (priority 2006, published 2007).
# Conditions: in words
structure (smiles),measurement,value
"NC(=O)N1c2ccccc2CC(=O)c2ccccc21 [Oxcarbazepine, 10-oxo-10,11-dihydro-5H-dibenz[b,f]azepine-5-carboxamide]",solubility in water,practically insoluble
